{
  "source": "patent US5145839A",
  "about": "“Pharmaceutical composition and method of use” (priority 1988, dated 1992)",
  "key": {"[1]": {"tested_on": "DNAs from different human cancer tissues, i.e. breast, colon and liver cancers", "assay": "in vitro synthesis (replication) of DNA from human cancer tissues", "format": "biochemical", "details": "FIG. 3", "from_the_text": "(§1) […]\n(§2) DNAs used were isolated from human cancer and normal tissues furnished by different hospitals as indicated in IRCS Medical Science 14: 809-810, 1986. The normal brain tissue originated from Macaca mulatta."}, "[2]": {"tested_on": "DNAs from normal tissues (human bone marrow and spleen)", "assay": "in vitro synthesis (replication) of DNA from normal human tissues", "format": "biochemical", "details": "FIG. 3", "from_the_text": "as §1, §2"}, "[3]": {"tested_on": "DNA from normal monkey brain", "assay": "in vitro synthesis (replication) of DNA from normal monkey brain", "format": "biochemical", "details": "Macaca mulatta brain; FIG. 3", "from_the_text": "as §1, §2"}, "[4]": {"tested_on": "DNA from cancerous tissue", "assay": "in vitro synthesis of tritium-labeled cancer DNA, agent added at different points in time", "format": "biochemical", "details": "FIGS. 4a, 4b", "from_the_text": "The same test method was used on DNA from cancerous tissue, determining the amount of tritium-labeled DNA synthesized over a period of time and the effect of introducing naringin at different points in time."}, "cancer cell DNA": {"tested_on": "cancer cell DNA", "assay": "UV absorbance at 260 nm (hypochromicity, DNA chain contraction), cancer cell DNA", "details": "20 μg DNA in 1 ml Tris-HCl pH 7.3, room temperature, FIGS. 5a, 5b", "from_the_text": "(§3) Naringin prepared in accordance with Example 1, and a commercial sample of naringenin prepared by Roth Co. of France, were used for comparison. […] The results are expressed as decrease of UV absorbance (hypochromicity) in the presence of various concentrations of the agent. The hypochromicity corresponds to DNA chain contraction, while hyperchromicity would correspond to DNA chain opening (i.e. the breaking of hydrogen bonds which normally hold the two DNA chains together). The spleen and bone marrow DNAs used in this test were from normal human spleen and bone marrow tissue cells. UV absorbance at wavelength of 260 nm for different DNAs from normal and cancer cells is performed at room temperature. 20 μg (micrograms) of DNA (deoxyribonucleic acid) are dissolved in 1 ml of Tris-HC1 buffer (10^-2 molar, pH adjusted to 7.3, solution made using sterile distilled water). The absorbance is measured before and after addition of either naringin or naringenin. The blank cuvette contains an equivalent amount of naringin or naringenin, but not DNA. The contact between DNA and compound is of about one minute (very slight agitation). The absorbance at 260 nm is then measured. The results are expressed as diminution (%) of UV absorbance."}, "[5]": {"tested_on": "normal cell DNA (spleen and bone marrow)", "assay": "UV absorbance at 260 nm (hypochromicity, DNA chain contraction), normal cell DNA", "details": "normal human spleen and bone marrow DNA, 20 μg in 1 ml Tris-HCl pH 7.3, 260 nm; FIGS. 5a, 5b", "from_the_text": "as §3"}, "human cancer cells": {"tested_on": "human cancer cells", "assay": "effect on in vitro cultured human cancer cells", "format": "cell-based", "details": "various concentrations; ovary cancer and leukemic cells resistant to classical chemotherapy; FIG. 2", "description": "(§4) Naringin prepared in Example 1 has been used for determining its effect on in vitro cultured human cancer and normal cells, according to the method of Shoermaker R.H. et al., Cancer Research 45: 2145-2153, 1985). Culture medium contained 100 μg of penicillin and streptomycin in order to prevent bacterial contamination."}, "[6]": {"tested_on": "normal human bone marrow cells", "assay": "effect on in vitro cultured normal human bone marrow cells", "format": "cell-based", "details": "various concentrations; FIG. 2", "description": "as §4"}, "[7]": {"tested_on": "tobacco mosaic virus (TMV)", "assay": "tobacco mosaic virus multiplication on tobacco leaf (plaque forming units)", "details": "20-50 micrograms per milliliter, virus incubated at 30° C. for 30 min.; xanthy tobacco leaf; checked two to three days later; FIG. 7", "description": "The effect of naringin prepared according to Example 1, of commercial naringin and of commercial naringenin has been tested on tobacco mosaic virus (TMV). In this experiment, viral suspension containing 2 μg of virus/ml of distilled water, was incubated at 30° C. for 30 min. with each of the above compounds (20-50 micrograms per milliliter) and then 20 μl placed on one-half of the leaf ([…] tobacco) while the same concentration of untreated virus was placed on the other half of the same leaf. The appearance of viral disease was checked two to three days later. […] Naringenin or commercial naringin gave similar results."}, "[8]": {"tested_on": "Terminal deoxynucleotidyl Transferase (TdT)", "assay": "in vitro activity of TdT in cat leucosis vaccine (Leucocell)", "format": "biochemical", "details": "10 minutes at 36° C., pH 7.70, FIG. 6", "from_the_text": "Both naringin and naringenin inhibit in vitro the activity of Terminal deoxynucleotidyl Transferase (TdT), an enzyme involved in the integration of viral genome into host cell. This enzyme is present in cat leucosis vaccine prepared by genetic engineering (Engerix® Leucocell vaccine), vaccine highly purified. I have previously shown that this enzyme catalyzes the polymerisation of d-TMP and d-CMP originating from d-TTP and d-CTP used respectively as substrates.\n(§5) For testing the activity of TdT, the incubation medium (0.10 ml final volume) contains: 25 μmoles fresh solution of Tris-HC1 buffer pH 7.70; 2 μmoles MgCl2; (^3 d-NTP (deoxynucleoside-5'-triphosphate, 100,000 CPM). Increasing amounts of Leucocell vaccine (as indicated in FIG. 6) are used. Incubation for 10 minutes at 36° C., then addition of an equal volume of trichloroacetic acid (TCA 5%). Acid-precipitable material is filtered on millipore (Whatman GF/C), washed with 5% TCA then with 95° alcohol. After millipore drying, radioactivity of acid-insoluble material is measured in scintillation spectrometer Packard. The results are expressed as CPM (counts/minute)/sample."}, "[9]": {"tested_on": "Terminal deoxynucleotidyl Transferase (TdT)", "assay": "in vitro activity of TdT which contaminates Engerix-vaccine antigen B", "format": "biochemical", "details": "TdT which contaminates Engerix-vaccine antigen B (DNA virus antigen), same conditions", "description": "as §5\nIn contrast, the activity of TdT which contaminates Engerix®-vaccine antigen B (Med. Sci. Res. 1987, vol.15 pp. 529-530), an antigen prepared from DNA virus is not inhibited, under the same conditions, by naringin or naringenin. Thus both naringin and naringenin selectively interfere with the proliferation of RNA virus but not DNA virus. However, as RNA from RNA-virus is transcribed into DNA by reverse transcriptase before being integrated into cell genome (potential role of TdT), naringin and naringenin are equally useful agents in treatment of all DNA infections equally."}, "BALB C mice": {"tested_on": "BALB C mice", "assay": "toxicity by intravenous route in BALB C mice", "format": "in vivo, mouse", "details": "for toxic effect: i.v. route, 10% DMSO, BALB C mice; for tolerability: i.v. injection or perfusion, doses from 250-1000 mg/kg (concluded)", "from_the_text": "This example illustrates the absence of toxicity of naringin or naringenin injected by intravenous route to BALB C mice."}, "Ehrlich ascitic cells": {"tested_on": "Ehrlich ascitic cells", "assay": "mice bearing Ehrlich ascitic cells", "format": "in vivo, Swiss mice", "details": "than lymphoma YC8 cells", "description": "(§6) O BALB C mice bearing lymphoma YC8 (ascitic form) and Swiss mice bearing Ehrlich ascitic cells (20-22 grams, Charles River breeding) were distributed at random in sets of 10.\nSet II: Mice bearing tumor cells received JO-1 (= naringin, Example 1): 0.2 ml/mouse, twice/day, i.p. route (for JO-1 concentrations, see Tables 1, 3, and 4, and FIG. 10.)\n(§7) Ascitic tumor cells were taken in sterile medium from mice bearing these cells for 15-20 days. 0.1 ml of ascitic suspension was mixed with 10 ml of buffered solution (pH 7.2) : (NaCl 7.2 g/l; Na2 HPO4 4.3 g/l and KH2 PO4 0.4 g/l).\n(§8) The number of cells was determined (by Malassez cell) and cellular suspension diluted in order to get cell number close to 40.000-50.000/ml. 0.1 ml of this suspension was immediately injected by i.p. route to mice in sets I, II and III and by i.m. route to mice in set IV.\nTreatment: 48 hours after injection of tumor cells: the mice of set II received (i.p.) JO-1 heated at 37° and filtered on millipore, treatment for five consecutive days; the mice of set III were treated (i.p.) by a mixture of JO-1 and one of the antibiotics for 5 consecutive days; the mice of set I (control) received (i.p.) only isotonic solution for 5 consecutive days; the mice of set IV received (i.m.) JO-1 for 15 consecutive days.\nOnly the survivors in excellent physical condition were taken into consideration ."}, "tumor cells": {"tested_on": "tumor cells", "assay": "mice bearing tumor cells treated with naringin and a chemotherapeutic agent", "format": "in vivo, mouse", "details": "with 5-fluorouracil, ARA-C, Endoxan, hydroxy-urea; i.p.; FIGS. 9a-9b, 10a-10d", "description": "as §6\nSet III: Mice bearing tumor cells received naringin (JO-1): 0.2 ml/mouse twice/day (for concentrations, see FIGS. 9 and 10), i.p. route and, at the same time these mice received a chemotherapeutic agent (for concentrations, see FIGS. 9 and 10) i.p. route.\nas §7, §8\nTreatment: 48 hours after injection of tumor cells: the mice of set II received (i.p.) JO-1 heated at 37° and filtered on millipore, treatment for five consecutive days; the mice of set III were treated (i.p.) by a mixture of JO-1 and one of the antibiotics for 5 consecutive days; the mice of set I (control) received (i.p.) only isotonic solution for 5 consecutive days; the mice of set IV received (i.m.) JO-1 for 15 consecutive days. […]"}, "[10]": {"assay": "biological activity compared with commercial compounds", "details": "compared with that exhibited by commercial compounds"}},
  "data": [
    {"smiles": "C[C@@H]1O[C@@H](O[C@H]2[C@H](Oc3cc(O)c4c(c3)O[C@H](c3ccc(O)cc3)CC4=O)O[C@H](CO)[C@@H](O)[C@@H]2O)[C@H](O)[C@H](O)[C@H]1O", "note": "[naringin]", "values": [
      {"measurement": "inhibition of in vitro synthesis of DNAs from human cancer tissues", "setting": "[1]", "value": "strongly inhibits"},
      {"measurement": "effect on in vitro synthesis of DNAs from normal human tissues", "setting": "[2]", "value": "practically unaffected"},
      {"measurement": "effect on in vitro synthesis of DNA from normal monkey brain", "setting": "[3]", "value": "practically unaffected"},
      {"measurement": "effect on DNA chain elongation", "setting": "[4]; added after the reaction starts", "value": "stops DNA chain elongation"},
      {"measurement": "effect on DNA initiation", "setting": "[4]; given at zero time of incubation", "value": "acts on DNA initiation sites"},
      {"measurement": "contraction of cancer cell DNA chains (hypochromicity)", "setting": "cancer cell DNA", "value": "contract cancer cell DNA chains"},
      {"measurement": "contraction of normal cell DNA chains (hypochromicity)", "setting": "[5]", "value": "either no effect or a very slight effect"},
      {"measurement": "inhibition of in vitro cultured human cancer cells", "setting": "human cancer cells", "value": "strongly inhibits"},
      {"measurement": "effect on in vitro cultured normal human bone marrow cells", "setting": "[6]", "value": "little effect"},
      {"measurement": "inhibition of TMV multiplication", "setting": "[7]", "value": "inhibits TMV multiplication"},
      {"measurement": "inhibition of in vitro activity of TdT", "setting": "[8]", "value": "inhibit in vitro activity of TdT"},
      {"measurement": "inhibition of in vitro activity of TdT", "setting": "[9]", "value": "not inhibited"},
      {"measurement": "toxic effect", "setting": "BALB C mice; 125 mg/kg", "value": "no toxic effect"},
      {"measurement": "toxic effect", "setting": "BALB C mice; 250 mg/kg", "value": "no toxic effect"},
      {"measurement": "toxic effect", "setting": "BALB C mice; 500 mg/kg", "value": "no toxic effect"},
      {"measurement": "tolerability", "setting": "BALB C mice", "value": "well tolerated"},
      {"measurement": "sensitivity of Ehrlich ascitic cells to naringin compared with lymphoma YC8 cells", "setting": "Ehrlich ascitic cells", "value": "less sensitive"},
      {"measurement": "synergistic action with classical antibiotics", "setting": "tumor cells", "value": "synergistic action"},
      {"measurement": "biological activity", "setting": "[10]", "value": "better biological activity"}
    ]},
    {"smiles": "O=C1C[C@@H](c2ccc(O)cc2)Oc2cc(O)cc(O)c21", "note": "[naringenin]", "values": [
      {"measurement": "contraction of cancer cell DNA chains (hypochromicity)", "setting": "cancer cell DNA", "value": "contract cancer cell DNA chains"},
      {"measurement": "contraction of normal cell DNA chains (hypochromicity)", "setting": "[5]", "value": "either no effect or a very slight effect"},
      {"measurement": "inhibition of TMV multiplication", "setting": "[7]", "value": "inhibits TMV multiplication"},
      {"measurement": "inhibition of in vitro activity of TdT", "setting": "[8]", "value": "inhibit in vitro activity of TdT"},
      {"measurement": "inhibition of in vitro activity of TdT", "setting": "[9]", "value": "not inhibited"},
      {"measurement": "toxic effect", "setting": "BALB C mice; 125 mg/kg", "value": "no toxic effect"},
      {"measurement": "toxic effect", "setting": "BALB C mice; 250 mg/kg", "value": "no toxic effect"},
      {"measurement": "toxic effect", "setting": "BALB C mice; 500 mg/kg", "value": "no toxic effect"},
      {"measurement": "tolerability", "setting": "BALB C mice", "value": "well tolerated"}
    ]}
  ]
}
